Assay results reported in ChEMBL document CHEMBL3044730, “Synthesis, antimycobacterial, antiviral, antimicrobial activities, and QSAR studies of nicotinic acid benzylidene hydrazide derivatives” (Med Chem Res, 2012).
In brackets after ≈: the same amount, converted by molar mass.

Tested on: not listed separately
Experiment: Cytotoxicity against Homo sapiens (human) HEL cells assessed as alteration in cell morphology by microscopy
Assay type: cell-based
Conditions: not given

Row | Compound | CC50 [µg/mL] | MCC [µg/mL]
1 | O=C(N/N=C/c1ccc(Cl)cc1)c1cccnc1 | 29 (≈ 112 µM) | > 100
2 | O=C(N/N=C/c1cccc(Br)c1)c1cccnc1 | 55 (≈ 181 µM) | > 100
3 | O=C(N/N=C/c1cccc(Cl)c1)c1cccnc1 | 53 (≈ 204 µM) | > 100

Tested on: Candida albicans
Experiment: Antimicrobial activity against Candida albicans after 7 days by serial dilution method
Assay type: functional
Parameters: unit not given here
Conditions: not given

Row | Compound | -logMIC
4 | O=C(N/N=C/c1ccc(Cl)cc1)c1cccnc1 | 1.92
5 | O=C(N/N=C/c1cccc(Br)c1)c1cccnc1 | 1.99
6 | O=C(N/N=C/c1cccc(Cl)c1)c1cccnc1 | 1.92

Tested on: Human alphaherpesvirus 1
Experiment: Antiviral activity against TK(-) aciclovir-resistant Human herpesvirus 1 strain KOS infected in human HEL cells assessed as inhibition of virus-induced cytopathicity
Assay type: functional, organism-based
Conditions: Human alphaherpesvirus 1, KOS

Row | Compound | EC50 [µg/mL]
7 | O=C(N/N=C/c1ccc(Cl)cc1)c1cccnc1 | > 100
8 | O=C(N/N=C/c1cccc(Br)c1)c1cccnc1 | > 100
9 | O=C(N/N=C/c1cccc(Cl)c1)c1cccnc1 | > 100

Tested on: Sindbis virus
Experiment: Antiviral activity against Sindbis virus infected Vero cells assessed as inhibition of virus-induced cytopathicity
Assay type: functional, organism-based
Conditions: not given

Row | Compound | EC50 [µg/mL]
10 | O=C(N/N=C/c1ccc(Cl)cc1)c1cccnc1 | > 100
11 | O=C(N/N=C/c1cccc(Br)c1)c1cccnc1 | > 100
12 | O=C(N/N=C/c1cccc(Cl)c1)c1cccnc1 | > 100

Tested on: Human herpesvirus 3 strain Oka vaccine
Experiment: Antiviral activity against Human herpesvirus 3 strain Oka vaccine OKA 07-1 (Varicella zoster virus) infected in human HEL cells assessed as inhibition of virus-induced cytopathicity
Assay type: functional, organism-based
Conditions: Human alphaherpesvirus 3, OKA 07-1, HEL

Row | Compound | EC50 [µg/mL]
13 | O=C(N/N=C/c1ccc(Cl)cc1)c1cccnc1 | > 100
14 | O=C(N/N=C/c1cccc(Br)c1)c1cccnc1 | > 100
15 | O=C(N/N=C/c1cccc(Cl)c1)c1cccnc1 | > 100

Tested on: not listed separately
Experiment: Cytotoxicity against Chlorocebus aethiops (African green monkey) Vero cells assessed as alteration in cell morphology by microscopy
Assay type: cell-based
Conditions: chlorocebus sabaeus

Row | Compound | MCC [µg/mL]
16 | O=C(N/N=C/c1ccc(Cl)cc1)c1cccnc1 | > 100
17 | O=C(N/N=C/c1cccc(Br)c1)c1cccnc1 | ≥ 100
18 | O=C(N/N=C/c1cccc(Cl)c1)c1cccnc1 | > 100

Tested on: Coxsackievirus B4
Experiment: Antiviral activity against Human coxsackievirus B4 infected Vero cells assessed as inhibition of virus-induced cytopathicity
Assay type: functional, organism-based
Conditions: Enterovirus B

Row | Compound | EC50 [µg/mL]
19 | O=C(N/N=C/c1ccc(Cl)cc1)c1cccnc1 | > 100
20 | O=C(N/N=C/c1cccc(Br)c1)c1cccnc1 | > 100
21 | O=C(N/N=C/c1cccc(Cl)c1)c1cccnc1 | > 100

Tested on: not listed separately
Experiment: Cytotoxicity against Homo sapiens (human) HeLa cells assessed as alteration in cell morphology by microscopy
Assay type: cell-based
Conditions: not given

Row | Compound | MCC [µg/mL]
22 | O=C(N/N=C/c1ccc(Cl)cc1)c1cccnc1 | > 100
23 | O=C(N/N=C/c1cccc(Br)c1)c1cccnc1 | ≥ 100
24 | O=C(N/N=C/c1cccc(Cl)c1)c1cccnc1 | > 100

Tested on: not listed separately
Experiment: Cytotoxicity against Homo sapiens (human) MT4 cells after 4 days by MTT assay
Assay type: cell-based
Conditions: not given

Row | Compound | CC50 at 96 h [µg/mL]
25 | O=C(N/N=C/c1ccc(Cl)cc1)c1cccnc1 | 76 (≈ 293 µM)
26 | O=C(N/N=C/c1cccc(Br)c1)c1cccnc1 | 66 (≈ 217 µM)
27 | O=C(N/N=C/c1cccc(Cl)c1)c1cccnc1 | 62 (≈ 239 µM)

Tested on: Human immunodeficiency virus 2
Experiment: Antiviral activity against Human immunodeficiency virus type 2 (ISOLATE ROD) infected MT4 cells assessed as inhibition of virus-induced cytopathic effect after 4 days by MTT assay
Assay type: functional, organism-based
Conditions: Human immunodeficiency virus 2, ISOLATE ROD, MT4, 96 h

Row | Compound | EC50 [µg/mL]
28 | O=C(N/N=C/c1ccc(Cl)cc1)c1cccnc1 | > 76
29 | O=C(N/N=C/c1cccc(Br)c1)c1cccnc1 | > 66
30 | O=C(N/N=C/c1cccc(Cl)c1)c1cccnc1 | > 62

Tested on: Escherichia coli
Experiment: Antimicrobial activity against Escherichia coli after 24 hr by serial dilution method
Assay type: functional
Parameters: unit not given here
Conditions: not given

Row | Compound | -logMIC
31 | O=C(N/N=C/c1ccc(Cl)cc1)c1cccnc1 | 1.32
32 | O=C(N/N=C/c1cccc(Br)c1)c1cccnc1 | 1.39
33 | O=C(N/N=C/c1cccc(Cl)c1)c1cccnc1 | 1.02

Tested on: Human alphaherpesvirus 2
Experiment: Antiviral activity against Human herpesvirus 2 strain G infected human HEL cells assessed as inhibition of virus-induced cytopathicity by microscopy
Assay type: functional, organism-based
Conditions: Human alphaherpesvirus 2, strain G

Row | Compound | EC50 [µg/mL]
34 | O=C(N/N=C/c1ccc(Cl)cc1)c1cccnc1 | > 100
35 | O=C(N/N=C/c1cccc(Br)c1)c1cccnc1 | > 100
36 | O=C(N/N=C/c1cccc(Cl)c1)c1cccnc1 | > 100

Tested on: Candida albicans
Experiment: Antimicrobial activity against Candida albicans after 2 days by serial dilution method
Assay type: functional
Parameters: unit not given here
Conditions: not given

Row | Compound | -logMIC
37 | O=C(N/N=C/c1ccc(Cl)cc1)c1cccnc1 | 1.32
38 | O=C(N/N=C/c1cccc(Br)c1)c1cccnc1 | 1.38
39 | O=C(N/N=C/c1cccc(Cl)c1)c1cccnc1 | 1.32

Tested on: Bacillus subtilis
Experiment: Antimicrobial activity against Bacillus subtilis after 24 hr by serial dilution method
Assay type: functional
Parameters: unit not given here
Conditions: not given

Row | Compound | -logMIC
40 | O=C(N/N=C/c1ccc(Cl)cc1)c1cccnc1 | 1.02
41 | O=C(N/N=C/c1cccc(Br)c1)c1cccnc1 | 1.39
42 | O=C(N/N=C/c1cccc(Cl)c1)c1cccnc1 | 1.02

Tested on: Respiratory syncytial virus
Experiment: Antiviral activity against Respiratory syncytial virus infected human HeLa cells assessed as inhibition of virus-induced cytopathicity by microscopy
Assay type: functional, organism-based
Conditions: not given

Row | Compound | EC50 [µg/mL]
43 | O=C(N/N=C/c1ccc(Cl)cc1)c1cccnc1 | > 100
44 | O=C(N/N=C/c1cccc(Br)c1)c1cccnc1 | > 100
45 | O=C(N/N=C/c1cccc(Cl)c1)c1cccnc1 | > 100

Tested on: Coxsackievirus B4
Experiment: Antiviral activity against Human coxsackievirus B4 infected human HeLa cells assessed as inhibition of virus-induced cytopathicity by microscopy
Assay type: functional, organism-based
Conditions: Enterovirus B

Row | Compound | EC50 [µg/mL]
46 | O=C(N/N=C/c1ccc(Cl)cc1)c1cccnc1 | > 100
47 | O=C(N/N=C/c1cccc(Br)c1)c1cccnc1 | > 100
48 | O=C(N/N=C/c1cccc(Cl)c1)c1cccnc1 | > 100

Tested on: Human immunodeficiency virus 1
Experiment: Antiviral activity against Human immunodeficiency virus 1 IIIB infected MT4 cells assessed as inhibition of virus-induced cytopathic effect after 4 days by MTT assay
Assay type: functional, organism-based
Conditions: MT4, 96 h

Row | Compound | EC50 [µg/mL]
49 | O=C(N/N=C/c1ccc(Cl)cc1)c1cccnc1 | > 76
50 | O=C(N/N=C/c1cccc(Br)c1)c1cccnc1 | > 66
51 | O=C(N/N=C/c1cccc(Cl)c1)c1cccnc1 | > 62

Tested on: Mycobacterium tuberculosis
Experiment: Antimicrobial activity against Mycobacterium tuberculosis by agar dilution method
Assay type: functional
Conditions: not given

Row | Compound | MIC [µg/mL]
52 | O=C(N/N=C/c1ccc(Cl)cc1)c1cccnc1 | 25 (≈ 96.3 µM)
53 | O=C(N/N=C/c1cccc(Br)c1)c1cccnc1 | > 25
54 | O=C(N/N=C/c1cccc(Cl)c1)c1cccnc1 | > 25

Tested on: Human respirovirus 3
Experiment: Antiviral activity against Human parainfluenza virus 3 infected Vero cells assessed as inhibition of virus-induced cytopathicity by microscopy
Assay type: functional, organism-based
Conditions: Human respirovirus 3, Vero

Row | Compound | EC50 [µg/mL]
55 | O=C(N/N=C/c1ccc(Cl)cc1)c1cccnc1 | > 100
56 | O=C(N/N=C/c1cccc(Br)c1)c1cccnc1 | > 100
57 | O=C(N/N=C/c1cccc(Cl)c1)c1cccnc1 | > 100

Tested on: Vaccinia virus
Experiment: Antiviral activity against Vaccinia virus infected human HEL cells assessed as inhibition of virus-induced cytopathicity by microscopy
Assay type: functional, organism-based
Conditions: Orthopoxvirus vaccinia

Row | Compound | EC50 [µg/mL]
58 | O=C(N/N=C/c1ccc(Cl)cc1)c1cccnc1 | > 100
59 | O=C(N/N=C/c1cccc(Br)c1)c1cccnc1 | > 100
60 | O=C(N/N=C/c1cccc(Cl)c1)c1cccnc1 | > 100

Tested on: Staphylococcus aureus
Experiment: Antimicrobial activity against Staphylococcus aureus after 24 hr by serial dilution method
Assay type: functional
Parameters: unit not given here
Conditions: not given

Row | Compound | -logMIC
61 | O=C(N/N=C/c1ccc(Cl)cc1)c1cccnc1 | 1.32
62 | O=C(N/N=C/c1cccc(Br)c1)c1cccnc1 | 1.09
63 | O=C(N/N=C/c1cccc(Cl)c1)c1cccnc1 | 1.32

Tested on: Human herpesvirus 5 strain AD169
Experiment: Antiviral activity against Human herpesvirus 5 strain AD169 Davis infected human HEL cells assessed as inhibition of virus-induced cytopathicity by microscopy
Assay type: functional, organism-based
Conditions: Human betaherpesvirus 5, Davis

Row | Compound | EC50 [µg/mL]
64 | O=C(N/N=C/c1ccc(Cl)cc1)c1cccnc1 | > 100
65 | O=C(N/N=C/c1cccc(Br)c1)c1cccnc1 | > 100
66 | O=C(N/N=C/c1cccc(Cl)c1)c1cccnc1 | > 100

Tested on: Punta Toro virus
Experiment: Antiviral activity against Punta Toro virus infected Vero cells assessed as inhibition of virus-induced cytopathicity
Assay type: functional, organism-based
Conditions: not given

Row | Compound | EC50 [µg/mL]
67 | O=C(N/N=C/c1ccc(Cl)cc1)c1cccnc1 | > 100
68 | O=C(N/N=C/c1cccc(Br)c1)c1cccnc1 | > 100
69 | O=C(N/N=C/c1cccc(Cl)c1)c1cccnc1 | > 100

Tested on: Human alphaherpesvirus 1
Experiment: Antiviral activity against Human herpesvirus 1 strain KOS infected in human HEL cells assessed as inhibition of virus-induced cytopathicity by microscopy by microscopy
Assay type: functional, organism-based
Conditions: Human alphaherpesvirus 1, KOS

Row | Compound | EC50 [µg/mL]
70 | O=C(N/N=C/c1ccc(Cl)cc1)c1cccnc1 | > 100
71 | O=C(N/N=C/c1cccc(Br)c1)c1cccnc1 | > 100
72 | O=C(N/N=C/c1cccc(Cl)c1)c1cccnc1 | > 100

Tested on: Mammalian orthoreovirus 1
Experiment: Antiviral activity against Mammalian orthoreovirus 1 infected Vero cells assessed as inhibition of virus-induced cytopathicity by microscopy
Assay type: functional, organism-based
Conditions: Mammalian orthoreovirus 1, Vero

Row | Compound | EC50 [µg/mL]
73 | O=C(N/N=C/c1ccc(Cl)cc1)c1cccnc1 | > 100
74 | O=C(N/N=C/c1cccc(Br)c1)c1cccnc1 | > 100
75 | O=C(N/N=C/c1cccc(Cl)c1)c1cccnc1 | 34 (≈ 131 µM)

Tested on: Vesicular stomatitis virus
Experiment: Antiviral activity against Vesicular stomatitis virus infected human HeLa cells assessed as inhibition of virus-induced cytopathicity by microscopy
Assay type: functional, organism-based
Conditions: not given

Row | Compound | EC50 [µg/mL]
76 | O=C(N/N=C/c1ccc(Cl)cc1)c1cccnc1 | > 100
77 | O=C(N/N=C/c1cccc(Br)c1)c1cccnc1 | > 100
78 | O=C(N/N=C/c1cccc(Cl)c1)c1cccnc1 | > 100
